Experiments:
Carbonic anhydrase 4 = molecular target: T1, Carbonic anhydrase 4 (Bos taurus, UniProt Q95323)
T1 sequence (Q95323 whole entry): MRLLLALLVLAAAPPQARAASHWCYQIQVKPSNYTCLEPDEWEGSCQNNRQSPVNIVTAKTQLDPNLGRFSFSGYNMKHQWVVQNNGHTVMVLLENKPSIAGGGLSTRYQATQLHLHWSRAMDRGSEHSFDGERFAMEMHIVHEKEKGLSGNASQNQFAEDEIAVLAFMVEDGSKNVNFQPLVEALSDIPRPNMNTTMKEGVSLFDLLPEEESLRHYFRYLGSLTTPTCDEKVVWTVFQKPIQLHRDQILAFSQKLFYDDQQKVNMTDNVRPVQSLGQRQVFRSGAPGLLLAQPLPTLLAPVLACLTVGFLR

Carbonic anhydrase 2 = Carbonic anhydrase 2 (Homo sapiens, UniProt P00918)
Carbonic anhydrase 1 = Carbonic anhydrase 1 (Homo sapiens, UniProt P00915)
Carbonic anhydrase 1, sequence (P00915 whole entry): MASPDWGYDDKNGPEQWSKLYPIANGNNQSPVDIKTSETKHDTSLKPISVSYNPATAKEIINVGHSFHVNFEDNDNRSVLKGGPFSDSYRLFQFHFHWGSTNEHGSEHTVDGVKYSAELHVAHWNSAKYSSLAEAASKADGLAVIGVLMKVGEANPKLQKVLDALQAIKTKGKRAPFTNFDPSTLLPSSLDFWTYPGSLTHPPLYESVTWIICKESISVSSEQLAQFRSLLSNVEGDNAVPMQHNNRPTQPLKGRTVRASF

SMILES | Ki (Carbonic anhydrase 4) | Ki (Carbonic anhydrase 2) | Ki (Carbonic anhydrase 1)
NS(=O)(=O)c1ccc(CNS(=O)(=O)c2ccccc2)cc1 | 64 nM | – | –
NS(=O)(=O)c1ccc(NS(=O)(=O)c2ccc(F)cc2)cc1 | 15 nM | 9 nM | 40 nM
CC(=O)Nc1ccc(S(=O)(=O)NCCc2ccc(S(N)(=O)=O)cc2)cc1 | 119 nM | 75 nM | 187 nM
NS(=O)(=O)c1ccc(CNC(=O)Nc2ccccc2)cc1 | 140 nM | – | 800 nM
CC(C)(C)C(=O)Nc1nnc(S(N)(=O)=O)s1 | 185 nM | – | 645 nM
Cn1nc(S(N)(=O)=O)s/c1=N/C(=O)CCCCC(F)(F)C(F)(F)F | 8 nM | – | 270 nM
CCCCCC(=O)Nc1ccc(S(N)(=O)=O)cc1 | 980 nM | 63 nM | 14200 nM
NS(=O)(=O)c1ccc(CNC(=O)c2cc3ccccc3oc2=O)cc1 | – | – | 69 nM
CC(=O)Nc1ccc(S(N)(=O)=O)cc1 | 2850 nM | 246 nM | 21400 nM
NS(=O)(=O)c1ccc(NS(=O)(=O)c2ccc([N+](=O)[O-])cc2)cc1 | 22 nM | 10 nM | 31 nM
CCCC(=O)Nc1ccc(S(N)(=O)=O)cc1 | 2540 nM | – | –
CC(=O)Nc1ccc(S(=O)(=O)Nc2nnc(S(N)(=O)=O)s2)cc1 | 8 nM | 3 nM | –
Cn1nc(S(N)(=O)=O)s/c1=N/C(=O)c1ccccc1 | 174 nM | 17 nM | 850 nM
NS(=O)(=O)c1nnc(NC(=O)c2ccccc2)s1 | 163 nM | – | 900 nM
NS(=O)(=O)c1nnc(NC(=O)CCCCC(F)(F)C(F)(F)F)s1 | 10 nM | 2 nM | 250 nM
NS(=O)(=O)c1ccc(CCNS(=O)(=O)c2ccccc2)cc1 | 39 nM | 28 nM | 69 nM
CCCCC(=O)Nc1ccc(S(N)(=O)=O)cc1 | 2370 nM | – | –

SMILES | Ki (Carbonic anhydrase 4) | Ki (Carbonic anhydrase 2) | Ki (Carbonic anhydrase 1)
NS(=O)(=O)c1ccc(CCNC(=O)Nc2ccc(Cl)c(Cl)c2)cc1 | 20 nM | 13 nM | 12 nM
NS(=O)(=O)c1ccc(NC(=O)c2ccccc2)cc1 | 176 nM | – | –
CC(=O)Nc1ccc(S(=O)(=O)Nc2nnc(S(N)(=O)=O)s2)cc1Cl | 4 nM | 1 nM | 5 nM
CC(=O)Nc1ccc(S(=O)(=O)Nc2nnc(S(N)(=O)=O)s2)cc1F | – | 1 nM | 6 nM
CC(=O)Nc1ccc(S(=O)(=O)Nc2nnc(S(N)(=O)=O)s2)cc1Br | 4 nM | 2 nM | –
NS(=O)(=O)c1ccc(NC(=O)CCCCC(F)(F)C(F)(F)F)cc1 | 600 nM | – | 950 nM
NS(=O)(=O)c1ccc(NC(=O)C(F)(F)F)cc1 | 2100 nM | – | –
CCC(=O)Nc1ccc(S(N)(=O)=O)cc1 | 2630 nM | – | –
NS(=O)(=O)c1ccc(/N=C\c2ncc[nH]2)cc1 | 130 nM | 120 nM | 1000 nM
CC(C)C(=O)Nc1ccc(S(N)(=O)=O)cc1 | 2840 nM | – | –
CCN[C@H]1CC(CCCOC)S(=O)(=O)c2sc(S(N)(=O)=O)cc21 (stereo not given in full) | 45 nM | – | –
NS(=O)(=O)c1ccc(CCNC(=O)c2cc3ccccc3oc2=O)cc1 | – | – | 66 nM
NS(=O)(=O)c1ccc(NC(=O)c2cc3ccccc3oc2=O)cc1 | – | – | 74 nM
NS(=O)(=O)c1ccc(NS(=O)(=O)c2ccccc2)cc1 | 85 nM | – | –
CC(C)(C)C(=O)Nc1ccc(S(N)(=O)=O)cc1 | 2550 nM | – | –
Cn1nc(S(N)(=O)=O)s/c1=N/C(=O)c1ccco1 | 30 nM | 6 nM | 290 nM

Reference: ChEMBL document CHEMBL1149322, “Carbonic anhydrase inhibitors. Inhibition of mitochondrial isozyme V with aromatic and heterocyclic sulfonamides” (J Med Chem, 2004)
